From PubChem BioAssay (NCI)
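At the GI50, growth is halved. At the TGI there is no net growth.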

Assays:
Assay in all cases: growth of human tumour cells (NCI), 384-well format
[1] = tested on: 786-0 renal
[2] = tested on: A498 renal
[3] = tested on: A549 NSCLC
[4] = tested on: ACHN renal
[5] = tested on: BT-549 breast
[6] = tested on: CAKI-1 renal
[7] = tested on: COLO 205 colon
[8] = tested on: DU-145 prostate
[9] = tested on: EKVX NSCLC
[10] = tested on: HCT-116 colon
[11] = tested on: HCT-15 colon
[12] = tested on: HL-60(TB) leukemia
[13] = tested on: HOP-62 NSCLC
[14] = tested on: HOP-92 NSCLC
[15] = tested on: HT29 colon
[16] = tested on: IGROV1 ovarian
[17] = tested on: K-562 leukemia
[18] = tested on: KM12 colon
[19] = tested on: M14 melanoma
[20] = tested on: MALME-3M melanoma
[21] = tested on: MCF7 breast
[22] = tested on: MDA-MB-231 breast
[23] = tested on: MDA-MB-435 melanoma
[24] = tested on: MDA-MB-468 breast
[25] = tested on: MOLT-4 leukemia
[26] = tested on: NCI-H226 lung
[27] = tested on: NCI-H23 lung
[28] = tested on: NCI-H322M lung
[29] = tested on: NCI-H460 NSCLC
[30] = tested on: NCI-H522 lung
[31] = tested on: OVCAR-3 ovarian
[32] = tested on: OVCAR-4 ovarian
[33] = tested on: OVCAR-5 ovarian
[34] = tested on: OVCAR-8 ovarian
[35] = tested on: PC-3 prostate
[36] = tested on: RXF 393 renal
[37] = tested on: SF-268 CNS
[38] = tested on: SF-295 CNS
[39] = tested on: SF-539 CNS
[40] = tested on: SK-MEL-2 melanoma
[41] = tested on: SK-MEL-28 melanoma
[42] = tested on: SK-MEL-5 melanoma
[43] = tested on: SK-OV-3 ovarian
[44] = tested on: SN12C renal
[45] = tested on: SNB-19 CNS
[46] = tested on: SNB-75 CNS
[47] = tested on: SR leukemia
[48] = tested on: SW-620 colon
[49] = tested on: T-47D breast
[50] = tested on: TK-10 renal
[51] = tested on: U251 glioblastoma
[52] = tested on: UACC-257 melanoma
[53] = tested on: UACC-62 melanoma
[54] = tested on: UO-31 renal

CC[C@@]1(O)C(=O)OCc2c1cc1n(c2=O)Cc2c-1nc1cc(F)c(C)c3c1c2[C@@H](N)CC3
GI50 [1]: < 10 nM | TGI [1]: < 10 nM | GI50 [2]: < 10 nM | TGI [2]: 14.2 nM | GI50 [3]: < 10 nM | TGI [3]: 43.1 nM | GI50 [4]: < 10 nM | TGI [4]: < 10 nM | GI50 [5]: < 10 nM | TGI [5]: < 10 nM | GI50 [6]: < 10 nM | TGI [6]: 11.7 nM | GI50 [7]: < 10 nM | TGI [7]: 159 nM | GI50 [8]: < 10 nM | TGI [8]: < 10 nM | GI50 [9]: < 10 nM | TGI [9]: 243 nM | GI50 [10]: < 10 nM | TGI [10]: 22.1 nM | GI50 [11]: < 10 nM | TGI [11]: 120 nM | GI50 [12]: < 10 nM | TGI [12]: < 10 nM | GI50 [13]: < 10 nM | TGI [13]: < 10 nM | GI50 [14]: < 10 nM | TGI [14]: 11 nM | GI50 [15]: < 10 nM | TGI [15]: 10.7 nM | GI50 [16]: < 10 nM | TGI [16]: 103 nM | GI50 [17]: < 10 nM | TGI [17]: 132 nM | GI50 [18]: < 10 nM | TGI [18]: < 10 nM | GI50 [19]: < 10 nM | TGI [19]: 18.7 nM | GI50 [20]: < 10 nM | TGI [20]: 84 nM | GI50 [21]: < 10 nM | TGI [21]: < 10 nM | GI50 [22]: 23.3 nM | TGI [22]: 617 nM | GI50 [23]: < 10 nM | TGI [23]: 177 nM | GI50 [24]: < 10 nM | TGI [24]: < 10 nM | GI50 [25]: < 10 nM | TGI [25]: < 10 nM | GI50 [26]: < 10 nM | TGI [26]: < 10 nM | GI50 [27]: < 10 nM | TGI [27]: < 10 nM | GI50 [28]: < 10 nM | TGI [28]: 17.4 nM | GI50 [29]: < 10 nM | TGI [29]: 16.7 nM | GI50 [30]: < 10 nM | TGI [30]: < 10 nM | GI50 [31]: < 10 nM | TGI [31]: 31.7 nM | GI50 [32]: 19 nM | TGI [32]: 308 nM | GI50 [33]: < 10 nM | TGI [33]: 43 nM | GI50 [34]: < 10 nM | TGI [34]: 39.8 nM | GI50 [35]: < 10 nM | TGI [35]: 1050 nM | GI50 [36]: < 10 nM | TGI [36]: < 10 nM | GI50 [37]: < 10 nM | TGI [37]: < 10 nM | GI50 [38]: < 10 nM | TGI [38]: < 10 nM | GI50 [39]: < 10 nM | TGI [39]: < 10 nM | GI50 [40]: < 10 nM | TGI [40]: 29.2 nM | GI50 [41]: < 10 nM | TGI [41]: 133 nM | GI50 [42]: < 10 nM | TGI [42]: < 10 nM | GI50 [43]: < 10 nM | TGI [43]: < 10 nM | GI50 [44]: < 10 nM | TGI [44]: < 10 nM | GI50 [45]: < 10 nM | TGI [45]: 25.9 nM | GI50 [46]: < 10 nM | TGI [46]: < 10 nM | GI50 [47]: < 10 nM | TGI [47]: < 10 nM | GI50 [48]: < 10 nM | TGI [48]: 108 nM | GI50 [49]: < 10 nM | TGI [49]: < 10 nM | GI50 [50]: < 10 nM | TGI [50]: 608 nM | GI50 [51]: < 10 nM | TGI [51]: < 10 nM | GI50 [52]: < 10 nM | TGI [52]: < 10 nM | GI50 [53]: < 10 nM | TGI [53]: < 10 nM | GI50 [54]: < 10 nM | TGI [54]: < 10 nM
